In patent US11331299B2, “Medicinal use of serrulatane diterpenes” (The University of Sydney, priority 2016, dated 2022):
pIC50: −log10 of the molar value.

Assays:
HDAC10 (h) = molecular target: T1, HDAC10 (h) (Homo sapiens, UniProt Q969S8); test: Epigenetic enzyme assay, Histone deacetylase (HDACs); format: biochemical; settings: read-out: % Inhibition of Control Values
T1 sequence (Q969S8 1-669): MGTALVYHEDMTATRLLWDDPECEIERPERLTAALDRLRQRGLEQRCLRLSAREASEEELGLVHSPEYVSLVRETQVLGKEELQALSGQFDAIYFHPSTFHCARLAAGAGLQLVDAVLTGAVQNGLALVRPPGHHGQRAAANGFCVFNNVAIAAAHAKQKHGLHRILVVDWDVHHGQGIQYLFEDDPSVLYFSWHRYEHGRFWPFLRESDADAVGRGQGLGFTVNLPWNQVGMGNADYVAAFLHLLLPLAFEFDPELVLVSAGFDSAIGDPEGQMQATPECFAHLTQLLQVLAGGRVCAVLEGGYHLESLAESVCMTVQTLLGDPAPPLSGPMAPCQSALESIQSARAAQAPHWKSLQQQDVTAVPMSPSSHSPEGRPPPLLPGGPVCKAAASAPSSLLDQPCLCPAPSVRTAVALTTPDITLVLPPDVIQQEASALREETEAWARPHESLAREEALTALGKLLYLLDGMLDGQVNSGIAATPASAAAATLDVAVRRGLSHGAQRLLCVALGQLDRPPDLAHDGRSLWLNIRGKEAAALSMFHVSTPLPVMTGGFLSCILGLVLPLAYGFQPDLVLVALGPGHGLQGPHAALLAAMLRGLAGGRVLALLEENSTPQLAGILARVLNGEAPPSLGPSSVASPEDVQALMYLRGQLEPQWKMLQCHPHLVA

TAF1(1) (h) bromodomain = molecular target: T2, TAF1(1) (h) bromodomain (Homo sapiens, UniProt P21675); test: Epigenetic binding assay, Bromodomain; settings: 10 μM; read-out: % Inhibition of Control Specific Binding
T2 construct: Bromodomain
T2 sequence (P21675 1397-1505 limits assumed): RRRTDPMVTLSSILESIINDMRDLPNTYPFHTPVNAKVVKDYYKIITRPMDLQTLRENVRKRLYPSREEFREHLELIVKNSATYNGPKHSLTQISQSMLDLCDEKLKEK

[1] = molecular target: T3, Phenylethanolamine N-methyltransferase (h) (Homo sapiens, UniProt P11086); test: Epigenetic enzyme assay, Small molecule methyltransferases; format: biochemical; settings: read-out: % Inhibition of Control Values
T3 sequence (P11086 1-282): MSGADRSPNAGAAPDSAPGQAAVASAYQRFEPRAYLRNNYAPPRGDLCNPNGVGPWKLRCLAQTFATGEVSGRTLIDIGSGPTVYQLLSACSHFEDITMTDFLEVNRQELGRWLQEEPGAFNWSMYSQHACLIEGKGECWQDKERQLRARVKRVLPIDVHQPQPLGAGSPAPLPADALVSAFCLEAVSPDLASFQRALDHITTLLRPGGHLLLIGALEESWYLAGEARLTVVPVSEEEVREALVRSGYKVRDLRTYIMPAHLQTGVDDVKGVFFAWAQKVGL

JMJD2B (h) = molecular target: T4, JMJD2B (h) (Homo sapiens, UniProt O94953); test: Epigenetic enzyme assay, Demethylases (KDMs); format: biochemical; settings: for inhibition at 10 µM: read-out: % Inhibition of Control Values
T4 sequence (O94953 1-1096): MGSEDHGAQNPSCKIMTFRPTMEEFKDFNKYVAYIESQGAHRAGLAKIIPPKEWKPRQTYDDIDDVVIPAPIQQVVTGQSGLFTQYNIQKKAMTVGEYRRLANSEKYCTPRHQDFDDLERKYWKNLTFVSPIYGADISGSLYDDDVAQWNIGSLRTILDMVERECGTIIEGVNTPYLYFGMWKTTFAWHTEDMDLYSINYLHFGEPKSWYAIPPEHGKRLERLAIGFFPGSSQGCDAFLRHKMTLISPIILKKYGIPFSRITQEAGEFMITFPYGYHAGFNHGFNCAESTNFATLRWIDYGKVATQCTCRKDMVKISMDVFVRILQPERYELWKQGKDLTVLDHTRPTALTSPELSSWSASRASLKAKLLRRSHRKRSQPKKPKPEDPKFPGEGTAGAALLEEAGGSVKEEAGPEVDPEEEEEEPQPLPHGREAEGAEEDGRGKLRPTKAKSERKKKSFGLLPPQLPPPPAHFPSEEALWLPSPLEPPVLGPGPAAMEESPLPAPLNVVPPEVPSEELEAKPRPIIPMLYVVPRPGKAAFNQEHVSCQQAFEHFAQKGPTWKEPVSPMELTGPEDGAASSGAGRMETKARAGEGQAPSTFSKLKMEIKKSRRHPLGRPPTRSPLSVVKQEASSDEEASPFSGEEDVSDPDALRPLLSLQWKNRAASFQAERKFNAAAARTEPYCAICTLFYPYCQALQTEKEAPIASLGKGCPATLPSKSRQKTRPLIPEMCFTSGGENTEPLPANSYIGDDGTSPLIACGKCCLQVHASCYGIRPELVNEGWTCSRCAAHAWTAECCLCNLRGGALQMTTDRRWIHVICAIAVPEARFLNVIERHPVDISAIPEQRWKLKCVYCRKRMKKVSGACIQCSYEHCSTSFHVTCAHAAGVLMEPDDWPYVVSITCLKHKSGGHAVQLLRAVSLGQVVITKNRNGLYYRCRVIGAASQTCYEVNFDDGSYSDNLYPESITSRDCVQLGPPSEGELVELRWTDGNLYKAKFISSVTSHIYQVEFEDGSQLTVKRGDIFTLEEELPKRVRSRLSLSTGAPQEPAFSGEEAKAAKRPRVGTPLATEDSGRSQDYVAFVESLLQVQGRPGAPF

[2] = test system: Rat L6 skeletal muscle cells; test: [3H]-2-Deoxy-D-glucose uptake; format: cell-based; settings: 10 μM; assay year 2016
Procedure: The in vitro pharmacological studies were conducted by Eurofins PanLab (Taiwan) using the parameters shown in Table 13 with respect to appropriate literature references.

[3] = molecular target: T5, sirtuin 2 (h) (inhibitor effect) (Homo sapiens, UniProt Q8IXJ6); test: Epigenetic enzyme assay, Sirtuins; format: biochemical; settings: 10 μM; read-out: % Inhibition of Control Values
T5 sequence (Q8IXJ6 1-389): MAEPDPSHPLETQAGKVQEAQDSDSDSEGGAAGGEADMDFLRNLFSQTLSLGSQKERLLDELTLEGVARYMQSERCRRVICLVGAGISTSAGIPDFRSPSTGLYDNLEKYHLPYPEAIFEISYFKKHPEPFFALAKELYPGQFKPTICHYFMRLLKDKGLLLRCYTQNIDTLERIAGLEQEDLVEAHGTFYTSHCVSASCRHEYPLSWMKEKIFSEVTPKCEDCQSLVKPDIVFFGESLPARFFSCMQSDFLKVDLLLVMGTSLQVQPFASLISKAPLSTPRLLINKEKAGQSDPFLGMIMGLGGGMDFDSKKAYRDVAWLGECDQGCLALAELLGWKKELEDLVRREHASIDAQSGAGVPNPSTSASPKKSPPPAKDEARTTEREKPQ

Structure (SMILES) | inhibition at 10 µM (HDAC10 (h)) [%] | inhibition at 10 µM (TAF1(1) (h) bromodomain) [%] | inhibition at 10 µM [1] [%] | % Inhibition of Control Values (JMJD2B (h); 10 μM) | inhibition at 10 µM (JMJD2B (h); 10 μM) [%] | pIC50 (JMJD2B (h); Table 11, inhibition/concentration-response curve, read-out: IC50) | % Control Response, agonist (increase in 2-DG uptake relative to insulin response) [2] [%] | inhibition at 10 µM [3] [%]
CC(C)=CCC[C@H](CO)[C@@H]1CC[C@@H](C)c2c1cc(C)c(O)c2O [Compound 1, 7,8,18-trihydroxyserrulat-14-ene] | 1 | 48 | 23 | significant inhibitory activity | 65 | 4.92 | −61 | -4
CC(C)=CCC[C@@H]1C(O)Oc2c(C)cc(O)c3c2[C@H]1CC[C@H]3C (some centres unmarked) [Compound 2, 5,18-epoxyserrulat-14-en-8,18-diol] | 3 | 17 | 9 |  | 16 |  |  | 6
CC(C)=CCC[C@@H]1COc2c(C)cc(O)c3c2[C@H]1CC[C@H]3C [Compound 3, 5,18-epoxy-8-hydroxyserrulat-14-ene] | 6 | 17 | 5 |  | 8 |  | −52 | -19
CC(C)=CCC[C@H](C)[C@@H]1CC[C@@H](C)c2c1cc(C)c(O)c2O [Compound 4, 7,8-dihydroxyserrulat-14-ene] |  |  |  |  |  |  | −45 | 
